# Values quoted from earlier work, collected in patent US12329899B2, “Dry powder inhaler and methods of use” (Aspeya US Inc., priority 2012, dated 2025).
# Tests used:
# [1] = oral solution of 650 mg, four male subjects
# [2] = oral administration, 325 mg
# platelet = conditions: 50 mg/day, some patients; the remainder needed over 50 mg/day
# [3] = any dose above 30 mg daily
# [4] = 75 mg/day
structure (smiles),measurement,setting,value
"CC(=O)Oc1ccccc1C(=O)O [aspirin, acetylsalicylic acid]",dose that reached the peripheral circulation intact (AUC oral vs intravenous),[1],68%
same,loss or inactivation of the oral dosage due to the first pass effect in the gut and liver,oral administration,approximately ⅔
same,fraction of the dose bioavailable due to the first pass effect,taken orally,about one to two-thirds
same,increase of major gastrointestinal and extracranial bleeds,[2],over 50%
same,platelet inhibition,platelet,satisfactory platelet inhibition
same,vascular events prevented,[3],13%
same,"gastrointestinal side-effects, bleeding episodes",[4],significant excess of bleeding episodes
same,risk of stroke or death,[4]; patients with cerebrovascular ischaemic events,significantly reduces the risk of stroke or death
